Results on 21 compounds are retold here after PubChem BioAssay AID330 (DTP/NCI, 2004).

SMILES strings stand for the structures. Where “and” joins values, the source holds several entries; their conditions need not be identical. Equal entries are not always repeated. Toxic doses and inconclusive results are not listed.

This experiment deals with P388 leukemia ip, CD2F1 mice, survival T/C. Description: NCI In Vivo Anticancer Drug Screen. Data for tumor model P388 Leukemia (intraperitoneal) in CD2F1 (CDF1) mice. Particulars: endpoint: median survival time, higher = longer survival. Put shortly:
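Mice carrying the transplanted tumor received test compound or vehicle. Survival was recorded in each group, and the value is the treated-group measurement divided by that of the vehicle-treated control group.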

[1] abbreviates: dose: 50.0 mg/kg/injection, schedule: Q01DX005 (ip), vehicle: saline.
[2] abbreviates: dose: 100.0 mg/kg/injection, schedule: Q01DX005 (ip), vehicle: saline.
The mark [3] stands for this setting: dose: 200.0 mg/kg/injection, schedule: Q01DX005 (ip), vehicle: saline.
Where [4] appears, read: dose: 50.0 mg/kg/injection, schedule: Q01DX009 (ip), vehicle: Klucel (hydroxypropylcellulose) (HPC).
Where [5] appears, read: dose: 100.0 mg/kg/injection, schedule: Q01DX009 (ip), vehicle: Klucel (hydroxypropylcellulose) (HPC).
Setting [6] is: dose: 200.0 mg/kg/injection, schedule: Q01DX009 (ip), vehicle: Klucel (hydroxypropylcellulose) (HPC).
[7] abbreviates: dose: 50.0 mg/kg/injection, schedule: Q01DX009 (ip), vehicle: saline.
Where [8] appears, read: dose: 100.0 mg/kg/injection, schedule: Q01DX009 (ip), vehicle: saline.

Take `COC1(c2ccccc2)C(c2ccccc2)=CC(c2ccccc2)=[N+]1[O-]` (centres undefined): the T/C reads like this: (dose: 50.0 mg/kg/injection, schedule: Q04DX003 (ip), vehicle: saline) 95 % of control; (dose: 100.0 mg/kg/injection, schedule: Q04DX003 (ip), vehicle: saline) 109 % of control; (dose: 200.0 mg/kg/injection, schedule: Q04DX003 (ip), vehicle: saline) 95 % of control.

Take `NC(CSSCC(N)C(=O)NCC(=O)O)C(=O)NCC(=O)O` (centres undefined): the T/C under setting [1] is 106 % of control, the T/C under setting [2] was 100 % of control and the T/C under setting [3] is 104 % of control.

With `Cn1ncc2c(N)c(C#N)c(=O)[nH]c21`, where the note is “dose: 25.0 mg/kg/injection, schedule: Q01DX001 (ip), vehicle: saline with Tween-80”, the T/C is 102 % of control.

Turning to `NC(=S)N/N=C/c1cc(Cl)ccc1O`, the T/C by setting is: (dose: 100.0 mg/kg/injection, schedule: Q04DX003 (ip), vehicle: saline with Tween-80) 99 % of control; (dose: 200.0 mg/kg/injection, schedule: Q04DX003 (ip), vehicle: saline with Tween-80) 98 % of control; (dose: 400.0 mg/kg/injection, schedule: Q04DX003 (ip), vehicle: saline with Tween-80) 93 % of control.

Turning to `CCC(C)N(CC(C)C)CC(C)(O)CNc1cc(OC)cc2cccnc12` (centres undefined), the T/C is 100 % of control (dose: 12.0 mg/kg/injection, schedule: Q01DX005 (ip), vehicle: saline); 105 % of control (dose: 25.0 mg/kg/injection, schedule: Q01DX005 (ip), vehicle: saline); 108 % of control and 96 % of control under setting [1].

For `Cc1nc(Cl)c(C)c(C(=O)O)n1`, the T/C runs as follows: (dose: 6.25 mg/kg/injection, schedule: Q01DX009 (ip), vehicle: other) 117 % of control; (dose: 12.5 mg/kg/injection, schedule: Q01DX009 (ip), vehicle: other) 114 % of control; (dose: 25.0 mg/kg/injection, schedule: Q01DX009 (ip), vehicle: other) 107 % of control; (dose: 50.0 mg/kg/injection, schedule: Q01DX009 (ip), vehicle: other) 99 % of control; (dose: 100.0 mg/kg/injection, schedule: Q01DX009 (ip), vehicle: other) 98 % of control.

For `CC1(C)OCC(C2OC(C)(C)OC2/C=C2/CC(=O)NC2=O)O1` (centres undefined), the T/C by setting is: under setting [4], 100 % of control and 107 % of control; under setting [5], 100 % of control and 120 % of control; under setting [6], 102 % of control and 122 % of control; (dose: 400.0 mg/kg/injection, schedule: Q01DX009 (ip), vehicle: Klucel (hydroxypropylcellulose) (HPC)) 116 % of control.

`CC[C@@H]1C[C@H]2CN(CCc3c([nH]c4ccccc34)[C@@](C(=O)OC)(c3cc4c(cc3OC)N(C)[C@H]3[C@@](O)(C(=O)OC)[C@H](OC(C)=O)[C@]5(CC)CCCN6CC[C@]43[C@@H]65)C2)C1`: the T/C is, setting by setting: (dose: 0.06 mg/kg/injection, schedule: Q01DX009 (ip), vehicle: water) 104 % of control; (dose: 0.13 mg/kg/injection, schedule: Q01DX009 (ip), vehicle: water) 104 % of control; (dose: 0.25 mg/kg/injection, schedule: Q01DX009 (ip), vehicle: water) 105 % of control and 110 % of control; (dose: 0.5 mg/kg/injection, schedule: Q01DX009 (ip), vehicle: water) 108 % of control and 118 % of control; (dose: 2.0 mg/kg/injection, schedule: Q01DX009 (ip), vehicle: saline with Tween-80) 150 % of control; (dose: 4.0 mg/kg/injection, schedule: Q01DX009 (ip), vehicle: saline with Tween-80) 159 % of control.

As for `C=C(C)C1CCC2(CO)C(O)CC3(C)C(CCC4C5(C)CCC(O)C(C)(C)C5CCC43C)C12` (centres undefined), the T/C was 93 % of control (dose: 15.0 mg/kg/injection, schedule: Q01DX009 (ip), vehicle: Klucel (hydroxypropylcellulose) (HPC)); 94 % of control (dose: 30.0 mg/kg/injection, schedule: Q01DX009 (ip), vehicle: Klucel (hydroxypropylcellulose) (HPC)); 86 % of control (dose: 60.0 mg/kg/injection, schedule: Q01DX009 (ip), vehicle: Klucel (hydroxypropylcellulose) (HPC)); 92 % of control (dose: 120.0 mg/kg/injection, schedule: Q01DX009 (ip), vehicle: Klucel (hydroxypropylcellulose) (HPC)).

`COc1cc2c(cc1OC)[C@]13C[C@@H](OC)C=CC14OC4CN3CCC2` (some centres undefined): the T/C (dose: 20.0 mg/kg/injection, schedule: Q01DX009 (ip), vehicle: saline with Tween-80) is 90 % of control; the T/C (dose: 40.0 mg/kg/injection, schedule: Q01DX009 (ip), vehicle: saline with Tween-80) is 95 % of control; the T/C (dose: 80.0 mg/kg/injection, schedule: Q01DX009 (ip), vehicle: saline with Tween-80) was 90 % of control; the T/C (dose: 150.0 mg/kg/injection, schedule: Q01DX009 (ip), vehicle: saline with Tween-80) was 122 % of control.

Take `O=C1c2c(Cl)c(Cl)c(Cl)c(Cl)c2C(=O)N1c1ccccc1-c1ccccc1`: the T/C reads like this: (dose: 87.5 mg/kg/injection, schedule: Q01DX009 (ip), vehicle: saline with Tween-80) 97 % of control; (dose: 175.0 mg/kg/injection, schedule: Q01DX009 (ip), vehicle: saline with Tween-80) 97 % of control; (dose: 350.0 mg/kg/injection, schedule: Q01DX009 (ip), vehicle: saline with Tween-80) 97 % of control.

With `O=C1c2ccccc2C(=O)N1O`, the T/C reads like this: under setting [7], 93 % of control; under setting [8], 100 % of control.

In the case of `CCC(=O)C(C)C(=O)CCC(=O)Nc1cc(Cl)ccc1Cl` (centres undefined), the T/C is 101 % of control (dose: 60.0 mg/kg/injection, schedule: Q01DX005 (ip), vehicle: saline); 103 % of control (dose: 120.0 mg/kg/injection, schedule: Q01DX005 (ip), vehicle: saline); 103 % of control (dose: 240.0 mg/kg/injection, schedule: Q01DX005 (ip), vehicle: saline).

For `O=C(O)c1oc2ccccc2c1/C=C/c1ccccc1`, the T/C was 100 % of control (dose: 50.0 mg/kg/injection, schedule: Q01DX009 (ip), vehicle: saline with Tween-80); 97 % of control (dose: 100.0 mg/kg/injection, schedule: Q01DX009 (ip), vehicle: saline with Tween-80); 100 % of control (dose: 200.0 mg/kg/injection, schedule: Q01DX009 (ip), vehicle: saline with Tween-80).

`Cc1c2ccncc2c(C)c2c1[nH]c1ccc(O)cc12`: the T/C is 111 % of control (dose: 6.25 mg/kg/injection, schedule: Q01DX009 (ip), vehicle: saline); 150 % of control (dose: 6.25 mg/kg/injection, schedule: Q01DX009 (ip), vehicle: suspension in saline); 169 % of control (dose: 12.5 mg/kg/injection, schedule: Q01DX009 (ip), vehicle: saline); 167 % of control (dose: 12.5 mg/kg/injection, schedule: Q01DX009 (ip), vehicle: suspension in saline).

Regarding `Cc1ccc(S(=O)(=O)S(=O)(=O)c2ccc(C)cc2)cc1`, the T/C is, setting by setting: (dose: 100.0 mg/kg/injection, schedule: Q04DX002 (ip), vehicle: saline with Tween-80) 96 % of control; (dose: 200.0 mg/kg/injection, schedule: Q04DX002 (ip), vehicle: saline with Tween-80) 99 % of control; (dose: 400.0 mg/kg/injection, schedule: Q04DX002 (ip), vehicle: saline with Tween-80) 104 % of control.

`CCCCCCCCSCCN(CC)CC`: the T/C was 104 % of control under setting [1], 103 % of control under setting [2] and 95 % of control under setting [3].

In the case of `CCNc1cc2oc(=O)cc(C(F)(F)F)c2cc1C`, the T/C is 97 % of control (dose: 50.0 mg/kg/injection, schedule: Q01DX005 (ip), vehicle: Klucel (hydroxypropylcellulose) (HPC)); 100 % of control (dose: 100.0 mg/kg/injection, schedule: Q01DX005 (ip), vehicle: Klucel (hydroxypropylcellulose) (HPC)); 99 % of control (dose: 200.0 mg/kg/injection, schedule: Q01DX005 (ip), vehicle: Klucel (hydroxypropylcellulose) (HPC)).

For `CCn1c2ccccc2c2cc(N)c(N=Nc3ccc([N+](=O)[O-])c(OC)c3)cc21`, the T/C under setting [4] is 104 % of control, the T/C under setting [5] was 104 % of control and the T/C under setting [6] was 105 % of control.

As to `C=C1SC(=Nc2ccc(Cl)cc2)N(c2nc(Cl)nc(Cl)n2)C12CCCCC2`, the T/C is, setting by setting: under setting [7], 98 % of control; under setting [8], 90 % of control; (dose: 200.0 mg/kg/injection, schedule: Q01DX009 (ip), vehicle: saline) 89 % of control.

Take `c1cc(-c2ncc3ccncc3n2)ccn1`: the T/C is, setting by setting: (dose: 60.0 mg/kg/injection, schedule: Q01DX005 (ip), vehicle: Klucel (hydroxypropylcellulose) (HPC)) 109 % of control; (dose: 120.0 mg/kg/injection, schedule: Q01DX005 (ip), vehicle: Klucel (hydroxypropylcellulose) (HPC)) 100 % of control; (dose: 240.0 mg/kg/injection, schedule: Q01DX005 (ip), vehicle: Klucel (hydroxypropylcellulose) (HPC)) 98 % of control.
